Results reported in patent US12704504B2, “Derivatization of beta-lactam antibiotics as calibrators/ISTD in massspec measurements” (Roche Diagnostics Operations, Inc., priority 2019, dated 2026).

Assay: Stability in water at room temperature, LC-MS/MS peak areas over 16 h
Format: physicochemical
Settings: 5 μg/mL, 0-16 h
Description: The stability of native Piperacillin as well as its hydrolyzed forms was investigated (compounds 5, 9a, 9b and 10, respectively. From the hydrolysis pathway of Piperacillin (compound 5, see schematic drawing in FIG. 1) it is obvious that this compound hydrolyzed both on the piperazin ring and the lactam moiety, only one of both compounds is monitored to account for the loss or degradation of native Piperacillin (compound 5)). To this end, these compounds were freshly weighed and dissolved in water at a concentration of 1 mg/mL by rolling or stirring for 15 minutes at room temperature. Subsequently, these compounds were diluted to 5 μg/mL and measured with a suitable LC-MS/MS method at timepoints 0, 2, 4, 6, 8 and 16 h. For this, a Sunshell C18 (2.6 μm, 2.1 mm×50 mm) column with Solvent A: water with 0.1% HCOOH and Solvent B: CH3CN with 0.1% HCOOH and a flow of 0.6 mL per minute were used on an Agilent Infinity II multisampler/Pump system connected to an AB Sciex 6500+MS. The peaks were integrated using MultiQuant software and the areas of these peaks depicted in the graphs in FIGS. 2A and 2B.
The stability of double butylamide variants of Piperacillin (compound 7, see FIG. 4) was investigated at 2 MRMs using the identical protocol as in Examples 1.

course of obtained peak-areas over time: decreasing
SMILES: CCN1CCN(C(=O)N[C@@H](C(=O)N[C@@H]2C(=O)N3[C@@H]2SC(C)(C)[C@@H]3C(=O)O)c2ccccc2)C(=O)C1=O [Piperacillin]
